Data taken from patent US7691875B2, “Imidazopyridine compounds, processes for their preparation and therapeutic uses thereof” (AstraZeneca AB, priority 2003, dated 2010).
In brackets after ≈: the same amount, converted by molar mass.

How the values were obtained:
[1] = Solubility in Fasted State Simulated Intestinal Fluid (FaSSIF); assay type: physicochemical; conditions: thermodynamic from solid, FaSSIF pH 6.5, 37° C., measured after 24 hours
Procedure: Solubility in Fasted State Simulated Intestinal Fluid (FaSSIF)
The method describes a procedure to measure solubility of solid material in PaSSIF (Fasted State Simulated Intestinal Fluid). The FaSSIF solution is an isotonic phosphate buffer where pH is adjusted to 6.5 to reflect pH in the jejunum. Taurocholic acid and lecithin is added to a concentration of 3 mmol/l and 0.75 mmol/l respectively.
1 mg of solid material, i.e. of the compound of invention, is added to 1 ml FaSSIF solution and equilibrated at 37° C. Samples are withdrawn after 1 and 24 hours. The samples are transferred to eppendorf tubes and spun at 10000 G and 37° C. for 10 minutes. A suitable volume of the supernatant is removed and diluted to a suitable concentration. The concentrations of the compounds in the samples are analysed with LC/UV/MS.

[2] = tested on: isolated rabbit gastric glands; assay: Acid secretion inhibition in isolated rabbit gastric glands; assay type: cell-based; conditions: Oryctolagus cuniculus, in vitro
Procedure: Acid Secretion Inhibition in Isolated Rabbit Gastric Glands
Inhibiting effect on acid secretion in vitro in isolated rabbit gastric glands was measured as
described by Berglindh et al. (1976) Acta Physiol. Scand. 97, 401-414.

[3] = target: H+,K+-ATPase (Homo sapiens, UniProt P20648); assay: Determination of H+,K+-ATPase activity (membrane vesicles, phosphate release); assay type: biochemical; conditions: 15 min, 37° C., pH 7.4, 10 mM KCl, 2 mM ATP
Chain of H+,K+-ATPase (P20648 whole entry): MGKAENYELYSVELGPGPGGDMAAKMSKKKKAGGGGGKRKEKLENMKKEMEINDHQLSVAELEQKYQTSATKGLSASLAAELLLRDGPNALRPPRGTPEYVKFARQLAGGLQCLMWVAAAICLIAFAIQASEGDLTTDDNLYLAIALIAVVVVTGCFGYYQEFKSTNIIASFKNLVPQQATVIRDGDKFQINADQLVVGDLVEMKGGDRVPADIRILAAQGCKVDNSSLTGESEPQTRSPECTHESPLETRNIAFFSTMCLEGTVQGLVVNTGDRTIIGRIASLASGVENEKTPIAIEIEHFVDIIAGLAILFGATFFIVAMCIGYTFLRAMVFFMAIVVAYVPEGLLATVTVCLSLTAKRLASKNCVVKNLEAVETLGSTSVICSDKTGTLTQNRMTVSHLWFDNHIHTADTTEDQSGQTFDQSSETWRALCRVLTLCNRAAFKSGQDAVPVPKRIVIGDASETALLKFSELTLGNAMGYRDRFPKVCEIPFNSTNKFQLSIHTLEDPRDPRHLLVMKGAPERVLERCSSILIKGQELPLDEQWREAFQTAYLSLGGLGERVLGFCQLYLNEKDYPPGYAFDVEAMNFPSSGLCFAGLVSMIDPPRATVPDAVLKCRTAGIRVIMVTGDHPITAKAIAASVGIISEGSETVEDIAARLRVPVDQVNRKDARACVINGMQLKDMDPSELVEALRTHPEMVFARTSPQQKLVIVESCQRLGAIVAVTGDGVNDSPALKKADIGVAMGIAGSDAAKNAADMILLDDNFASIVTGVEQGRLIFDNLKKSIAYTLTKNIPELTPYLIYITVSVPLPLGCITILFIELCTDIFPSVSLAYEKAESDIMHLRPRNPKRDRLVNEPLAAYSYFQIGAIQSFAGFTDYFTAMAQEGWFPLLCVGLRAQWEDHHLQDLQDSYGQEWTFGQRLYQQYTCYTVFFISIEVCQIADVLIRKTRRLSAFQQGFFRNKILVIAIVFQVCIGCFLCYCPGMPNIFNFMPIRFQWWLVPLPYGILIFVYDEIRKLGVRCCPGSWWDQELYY
Chain of H+,K+-ATPase (P51164 whole entry partner): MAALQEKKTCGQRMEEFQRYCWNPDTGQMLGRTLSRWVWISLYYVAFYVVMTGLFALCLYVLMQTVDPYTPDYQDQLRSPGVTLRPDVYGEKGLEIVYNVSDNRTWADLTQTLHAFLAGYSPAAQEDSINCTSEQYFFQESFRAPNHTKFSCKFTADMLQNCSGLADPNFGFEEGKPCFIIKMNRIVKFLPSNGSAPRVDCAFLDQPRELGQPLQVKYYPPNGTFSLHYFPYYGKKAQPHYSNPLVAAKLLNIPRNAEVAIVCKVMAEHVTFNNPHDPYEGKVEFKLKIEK
Procedure: Detennination of H^+,K^+-ATPase Activity
Membrane vesicles (2.5 to 5 μg) were incubated for 15 min at +37° C. in 18 mM Pipes/Tris buffer pH 7.4 containing 2 mM MgCl2, 10 mM KCl and 2 mM ATP. The ATPase activity was estimated as release of inorganic phosphate from ATP, as described by LeBel et al. (1978) Anal. Biochem. 85, 86-89.

[4] = Bioavailability in the conscious dog; assay type: in vivo; conditions: plasma
Procedure: Bioavailabiity is assessed by calculating the quotient between the area under blood/plasma concentration (AUC) curve following (i) intraduodenal (i.d.) or oral (p.o.) administration and (ii) intravenous (i.v.) administration from the rat or the dog, respectively.
The area under the blood concentration vs. time curve, AUC, is determined by the log/linear trapezoidal rule and extrapolated to infinity by dividing the last determined blood concentration by the elimination rate constant in the terminal phase. The systemic bioavailability (F%) following intraduodenal or oral administration is calculated as F(%)=(AUC (p.o. or i.d.)/AUC (i.v.))×100.
(§1) Inhibition of Gastric Acid Secretion and Bioavailability in the Conscious Dog.
Blood samples for the analysis of test compound concentration in plasma are taken at intervals up to 4 h after dosing. Plasma is separated and frozen within 30 min after collection and later analyzed. The systemic bioavailability (F%) after oral or i.d. administration is calculated as described above in the rat model.

[5] = tested on: histamine-stimulated acid secretion; assay: Inhibition of histamine-stimulated gastric acid secretion in the conscious Heidenhain pouch dog; assay type: in vivo; conditions: 1-3 hours after dosing, mean n=2
Procedure: as §1
Labrador retriever or Harrier dogs of either sex are used. They are equipped with a duodenal fistula for the administration of test compounds or vehicle and a cannulated gastric fistula or a Heidenhaim-pouch for the collection of gastric secretion.
Before secretory tests the animals are fasted for about 18 h but water is freely allowed. Gastric acid secretion is stimulated for up to 6.5 h infusion of histamine dihydrochloride (12 ml/h) at a dose producing about 80 % of the individual maximal secretory response, and gastric juice collected in consecutive 30-min fractions. Test substance or vehicle is given orally, i.d. or i.v., 1 or 1.5 h after starting the histamine infusion, in a volume of 0.5 ml/kg body weight. In the case of oral administration, it should be pointed out that the test compound is administered to the acid secreting main stomach of the Heidenham-pouch dog.
The acidity of the gastric juice samples are determined by titration to pH 7.0, and the acid output calculated. The acid output in the collection periods after administration of test substance or vehicle are expressed as fractional responses, setting the acid output in the fraction preceding administration to 1.0. Percentage inhibition is calculated from fractional responses elicited by test compound and vehicle.

solubility at 24 h [1]	IC50 [2]	IC50 [3]	bioavailability [4]	Compound	mean percentage inhibition of histamine-stimulated acid secretion [5]
218 µM				CS(=O)(=O)O.Cc1cccc(C)c1CNc1cc(C(=O)NC[C@H](C)O)cn2c(C)c(C)nc12 [8-[(2,6-dimethylbenyl)amino]-N-[(2S)-2-hydroxypropyl]-2,3-dimethylimidazo[1,2-a]pyridine-6-carboxamide mesylate salt]	
	280 nM	750 nM	61%	Cc1cccc(C)c1CNc1cc(C(=O)NCCO)cn2c(C)c(C)nc12 [8-[(2,6-dimethylbenzyl)amino]-N-(2-hydroxyethyl)-2,3-dimethylimidazo[1,2-a]pyridine-6-carboxamide, reference compound]	
48 µM (≈ 18.3 µg/mL)	260 nM	690 nM		Cc1cccc(C)c1CNc1cc(C(=O)NC[C@H](C)O)cn2c(C)c(C)nc12 [compound of the invention, 8-[(2,6-dimethylbenzyl)amino]-N-[(2S)-2-hydroxypropyl]-2,3-dimethylimidazo[1,2-a]pyridine-6-carboxamide]	91%
